In patent US20220054494A1, “METHODS FOR TREATING BLADDER AND URETHRA DYSFUNCTION AND DISEASE” (University of Pittsburgh - Of the Commonwealth System of …, priority 2019, published 2022):
Entries after “also recorded” stand apart in the source; their conditions may differ.

Experiments:
[1] = system: bladder blood flow; assay: Laser Doppler flowmeter bladder blood flow, aged rats; format: in vivo, rat; conditions: oral 8-AG 5 mg/kg/day, 6 weeks, compared with young rats
From the text: Vascular Changes: Bladders that had been perfused transcardially with PBS buffer containing 20 nm yellow-green fluorescent beads (THERMO FISHER®, F8787) to highlight the vasculature were fixed then cleared by removing lipids and dissolving light-absorbing chromophores within the tissue. Volumetric data were acquired using a Caliber ID RS-G4 ribbon scanning confocal microscope (NIKON® Inc, Tokyo, Japan), which can acquire large-area images (uses a high nA (1.0) long working distance (8 mm) with low magnification (20×)). This affords the advantage of interrogating whole tissues in a three-dimensional environment without the need to section. Real-time blood perfusion (1 mm3 tissue) was accomplished using a BLF22D laser Doppler flowmeter (Transonic Systems, Inc) with a surface probe (TypeS-APLPHS) applied to the serosal surface of the bladder (apex and neck) wall using Doppler light shift from moving RBCs to analyze flow by the Bonner algorithm. This method gives robust, non-invasive microvascular flow signals in the bladder wall of anesthetized rats.

[2] = system: aged rats; assay: Voiding analysis in metabolic cages, aged rats; format: in vivo, rat
Protocol: Experimental design: Young (3 months of age) and aged (25 to 30 months of age) Fisher 344 rats were used in these experiments. Some of the aged Fisher 344 rats were treated with 8-AG (5 mg kg/day via drinking water) for 1 month.
Voiding analysis: Rats were placed in metabolic cages for 24 hr (once per week for the duration of the study). Voided urine was collected in cups attached to force displacement transducers (GRASS TECHNOLOGIES®, Warwick, R.I.) connected to a computer running WINDAQ™ data acquisition software (DATAQ™ Instruments Inc., Akron, Ohio). Data were averaged for 24 h, and voiding frequency, total voided volume, and volume per void were analyzed. Voiding frequency was calculated as the number of voiding events per hour during 24 h, and volume per void, which defines bladder capacity, was calculated as an average of the voids occurring during these periods.
Animals: Male and female Fisher 344 rats were employed (Charles River; Wilmington, Mass. and the NIA rodent colony). Some rats were young (3 months of age), some were aged (25-30 months of age), and others were aged and treated with oral 8-AG (5 mg/kg/day; 6 weeks). Under isoflurane anesthesia and using an aseptic technique, an incision was made into the lower abdomen and in the scapular area. Sterile PE50 tubing was threaded subcutaneously from the lower abdomen to the scapular area and connected to a one-channel vascular access button (Intech Laboratories, Plymouth Meeting, Pa.). In the abdomen, the tubing was inserted into the bladder and secured with a small purse-string suture. The incisions were closed, and the animals were allowed to recover for 7-10 days before further experimentation. Animals were divided into three groups. A control group of aged rats received daily infusions with 10 μM DEA-NONOate (SIGMA-ALDRICH®, St. Louis, Mo.) in sterile 0.9% saline. A second group received 100 μM 8-AG plus 10 μM DEA-NONOate in 0.9% saline, and a third group received 5 μM forodesine (SIGMA-ALDRICH®) plus 10 μM DEA-NONOate in 0.9% saline. Bladders were instilled via a catheter tether kit (Instech Laboratories) connected to a syringe pump for continuous infusion (rate 200 μl/min; 30 minutes/daily) for 3-6 weeks. The Institutional Animal Care and Use Committee approved all procedures. The investigation conforms to the Guide for the Care and Use of Laboratory Animals published by the US National Institutes of Health (NIH Publication No. 85-23, revised 1996).
Protocol 1: Young, aged, and 8-AG-treated aged rats were placed in metabolism cages for 24 hr once per week. The light cycle was from 7:00 AM to 7:00 PM, and food and water were provided ad libitum. Voided urine was collected in cups attached to force displacement transducers (GRASS TECHNOLOGIES®, Warwick, R.I.) that were connected to a computer running Windaq data acquisition software (DATAQ® Instruments I2nc., Akron, Ohio). Data were averaged for 24 h and analyzed for 12-h periods during the day (7:00 AM-7:00 PM) and night (7:00 PM-7:00 AM). Voiding frequency, total voided volume, and volume per void were analyzed. Voiding frequency was calculated as the number of voiding events per hour during 24 h and during the 12-h day and 12-h night periods. Volume per void, which defines bladder capacity, was calculated as an average of the voids occurring during these periods.
Voiding Analysis: Young, aged, and 8-AG-treated aged rats were placed in metabolic cages (24 hr; once per week) for the duration of the study. The light cycle was from 7:00 AM to 7:00 PM, and food and water were provided ad libitum. Voided urine was collected in cups attached to force displacement transducers (Grass Technologies, Warwick, R.I.) connected to a computer (Windaq data acquisition software DATAQ Instruments Inc., Akron, Ohio). Data were averaged for 24 h and analyzed for 12-h periods during the day (7:00 AM-7:00 PM) and night (7:00 PM-7:00 AM). Voiding frequency, total voided volume, and volume per void were analyzed. […]

[3] = system: CYP-treated rats; assay: Abdominal mechanical pain threshold (Von Frey) in CYP cystitis model; format: in vivo, rat; conditions: CYP (75 mg/kg i.p.) female Sprague Dawley rats; oral 8-AG 5 mg/kg for 1 week prior to CYP
Protocol: Animals: Female Sprague Dawley rats were employed in this example (Charles River; Wilmington, Mass.). Three groups of animals were included. Group 1 received an i.p. injection of saline and was used as a control; groups 2 and 3 received an i.p. injection of cyclophosphamide (CYP, SIGMA-ALDRICH®, St Louis, Mo., day 0, 3, 6, sacrifice day 8, 75 mg/kg, i.p.) with group 3 treated with oral 8-AG (5 mg/kg/day; starting one week prior to CYP). CYP induced bladder inflammation and is a well-established pre-clinical model for BPS/IC.
Determination of mechanical pain threshold: Lower abdominal pain was evaluated using a mechanical hyperalgesia and allodynia test (Larid et al., Pain, 92:335-342, 2001; Minnet et al., PLoS One, 9:e104458, 2014). Briefly, animals were placed in individual chambers with a wire mesh floor and allowed to acclimate. This Von Frey test was performed in the lower abdomen and consists of delivering a constant pre-determined force with one of a series of Von Frey monofilaments (from 0.08 to 19.6 mN; Stoelting Co., Wood Dale, Ill., USA). Filaments were applied perpendicularly with enough strength to cause the monofilament to slightly bend. Each monofilament was tested five times, 5 s interval between each application. […]

[4] = system: hydroxyproline; assay: Hydroxyproline in detrusor smooth muscle (indicator of fibrosis); format: in vivo, rat; conditions: aged rats; oral 8-AG 5 mg/kg/day, 6 weeks
[5] = system: deoxycorticosterone/salt-induced hypertension; conditions: chronic oral treatment of rats; Jackson et al. 2016; cited from earlier work
[6] = aged Fischer 344 rats, oral 8-AG 5 mg/kg/day, 6 weeks
[7] = aged Fisher 344 rats, 8-AG 5 mg kg/day via drinking water, 1 month

## Nc1nc2[nH]c(N)nc2c(=O)[nH]1 [8-AG, 8-Aminoguanine]
[1]
  bladder blood flow (Doppler flowmeter): no significant difference; also recorded: reversed to a younger state
[2]; [6]
  voided volume: attenuates
  voiding frequency: attenuates
[2]; [7]
  bladder abnormalities (voided volume, voiding efficiency, voiding frequency): reversed
  voided volume: attenuates
  voiding frequency: attenuates
[2]; aged rats, intravesical 100 μM 8-AG plus 10 μM DEA-NONOate, daily infusion 3-6 weeks, vs control aged rats
  voiding frequency: decreased; also recorded: attenuates
[3]
  abdominal mechanical pain threshold: returned to near control levels
[4]
  hydroxyproline in detrusor smooth muscle: levels similar to the younger state; also recorded: restored these biomarkers to that of a younger state
[5]
  development of deoxycorticosterone/salt-induced hypertension: attenuate
